Test [1] relates to pulmonary artery endothelial cells. The experiment in a line: EndMT marker expression (Western blot, qRT-PCR) in pulmonary artery endothelial cells treated with TGF-β2 and IL-1β. Format: cell-based, human. As to conditions: PAECs treated simultaneously with TGF-β2, IL-1β and (R)-PFI-2. On the procedure: Pulmonary arterial ECs (PAECs) and human umbilical vein ECs (HUVECs) were cultured in EGM-2 (Lonza) to which MycoZap (Lonza) and 1% penicillin-streptomycin (Welgene) were added. Human Microvascular ECs (HMVECs) were cultured in EGM-2-MV (Lonza), and Lenti-λ-293T and MCF7 cells were cultured in Dulbecco's modified Eagle medium (DMEM) (HyClone) containing 10% fetal bovine serum (FBS, HyClone), 1% penicillin-streptomycin (Welgene), and MycoZap (Lonza). All cell lines were cultured at 37° C. in a 5% CO2 incubator and cultured at 90% density.
TGF-β2 was purchased from Peprotech and dissolved in pure water containing 0.1% bovine serum albumin (BSA). IL-1β was purchased from R&D System and dissolved in 1×PBS containing 0.1% BSA. […]
In order to isolate the total RNA, miRNeasy RNA isolation kit (QIAGEN) was used. The purified RNA was reverse transcribed using qPCRBIO cDNA Synthesis Kit (PCR-BIOSYSTEMS), and real-time quantitative PCR (qRT-PCR) was performed using qPCRBIO SyGreen Mix Hi-ROX (PCR-BIOSYSTEMS) according to the manufacturer's instructions. […]
All cells were lysed in radioimmunoprecipitation assay (RIPA) buffer (Biosesang) containing protease (GenDepot) and phosphatase (Sigma Aldrich) inhibitors for 20 minutes. […] A protein concentration was measured using Pierce BCA Protein Assay Kit (Thermo Scientific), and Laemmli SDS Sample Buffer was added to an equal amount of protein and boiled. […]
(Immunoblotting shows a protein as a band on a membrane.)

Test [2] shares this test system. Nature of the test: Phalloidin staining of cytoskeleton change in EndMT-induced pulmonary artery endothelial cells. Format: cell-based, human. The conditions noted are these: TGF-β2, IL-1β and (R)-PFI-2; FIG. 9C. On the procedure:
PAECs and Lenti-X-293T were immobilized with 4% formaldehyde and washed with 1×PBS. Thereafter, the cells were permeabilized with 0.2% Triton X-100 and blocked with 1% BSA dissolved in 1×PBS for 1 hour at room temperature. The cells were reacted with the following primary antibodies at 4° C. overnight: anti-VE-cadherin (Cell Signaling, 2500S, 1:100), anti-Fibronectin (BD Pharmigen, 61007, 1:100), anti-TAGLN (Abcam, ab14106, 1:200), anti-α-SMA conjugated with Cy3 (Sigma Aldrich, C6198, 1:200), anti-NF-κB p65 (Cell signaling, 8242S, 1:400), anti-SET7/9 (LsBio, C337450, 1:100), and rhodamine phalloidin (Sigma Aldrich, 1:1,000). Secondary antibodies of donkey anti-goat Alexa Fluor 488 and donkey anti-goat Alexa Fluor 568 (Invitrogen, 1:400) were reacted at room temperature for 1 hour. In order to obtain immunostaining images, a confocal microscope equipped with a 60× objective lens (Zeiss LSM-700) was used.
In order to confirm the inhibitory effect of the drug on endothelial-mesenchymal transition, a model in which pulmonary artery endothelial cells were simultaneously treated with cyproheptadine along with TGF-β2 and IL-1β for 5 to 7 days was used. […]

Test [3] relates to PAECs. Nature of the test: Dextran permeation assay. Format: cell-based, human. As to conditions: TGF-β2, IL-1β and (R)-PFI-2; FIG. 9D. As to the method: PAECs were seeded at 2×10^5 cells per well in a 24-well plate equipped with a cell culture inlet (SPL, 0.4 μm). After a drug treatment, the insert was transferred to a well containing a serum-free medium (SFM), the medium in the insert was replaced with SFM containing FITC-dextran (Sigma Aldrich, FD40S, 1 mg/ml). After 10 minutes and 1 hour, a part of SFM was taken out from the plate well where dextran permeation occurred, and the fluorescence was measured. The fluorescence intensity was measured on a microplate reader (excitation, 485 nm; emission, 530 nm).

Test [4] relates to PAECs. The experiment in a line: Dil-Ac-LDL uptake assay. The conditions noted are these: TGF-β2, IL-1β and (R)-PFI-2; FIG. 9E. Format: cell-based, human. On the procedure:
PAECs were seeded at 2×10^5 cells per well in a 12-well plate. After a drug treatment, the cells were reacted with Dil-Ac-LDL (Invitrogen, 10 μg/ml) at 37° C. for 3 hours. After the reaction, the cells were washed four times with 1×PBS and then subjected to image analysis with a fluorescence microscope.

Test [5] relates to SuHx-induced pulmonary arterial hypertension rats. The experiment in a line: SuHx-induced pulmonary arterial hypertension animal model. Type of test: in vivo, rat. The conditions noted are these: subcutaneously 10 mg/kg for 3 weeks. On the procedure:
8-Week-old male Sprague Dawley rats (specific-pathogen-free grade form SaeronBio, Republic of Korea) were used for the PAH rat model.
Semaxanib (DC Chemicals, SU5416) dissolved in DMSO and then suspended in a buffer (0.5% sodium carboxymethylcellulose, 0.5% sodium chloride, 0.4% Tween-80, and 0.9% benzyl alcohol that were dissolved in deionized water) was injected subcutaneously into the rats at 20 mg/kg. The rats were exposed to 10% 02 hypoxic conditions for 3 weeks. After the rats were restored to normoxic conditions, Cyproheptadine (Cayman) or (R)-PFI-2 (DC Chemicals) was administered. Cyproheptadine was administered intraperitoneally every day at 5 mg/kg for 2 weeks, and (R)-PFI-2 was administered subcutaneously every 2 days at 10 mg/kg for 3 weeks. A right ventricular systolic pressure (RVSP) was measured, and the rats were sacrificed.
Proteins were separated by sodium dodecyl sulfate polyacrylamide gel electrophoresis (SDS-PAGE) and transferred to a polyvinylidene difluoride membrane (Millipore). After blocking the membrane with 3% BSA dissolved in 0.2% PBS with Tween® detergent (PBST), the proteins on the membrane were reacted with the primary antibodies listed in Table 2 overnight. For immunodetection, HRP-conjugated secondary antibodies (1:4,000) were conjugated with the primary antibodies at room temperature for 1 hour (average temperature of 22° C.), and then detected using an enhanced chemiluminescence detection system (Thermo Scientific). In order to separate cytoplasmic and nuclear proteins, EpiQuik Nuclear Extraction Kit (EpiGentek) was used according to the manufacturer's instructions. Protein extracts from animal lung tissue were homogenized in RIPA buffer for 3 minutes at a frequency of 25 Hz.
The harvested animal lung tissue was embedded in paraffin blocks and cut into […] sections. The paraffin sections were deparaffinized using Histoclear for 10 minutes. In order to hydrate the sections, ethanol dissolved in pure water was used according to a concentration gradient (100%, 90%, 70%, 50%, 30%, and 0%). The tissue slides were placed in Borg Decloaker RTU antigen retrieval solution (Biocare Medical) and the sections were heated using a pressure cooker to recover antigens. When the temperature of the recovery solution was lowered, the sections were washed three times with 1×PBS for 5 minutes each, and then blocked with a blocking buffer (1% BSA and 5% goat serum dissolved in 1×PBS) at room temperature for 30 minutes. The sections were reacted with the primary antibodies at 4° C. overnight. Anti-vWF conjugated with FITC (Abcam, ab8822, 1:50), anti-α-SMA conjugated with Cy3 (Sigma Aldrich, C6198, 1:100), anti-SM22a (Abcam, ab14106, 1:130), and anti-SET7/9 (LsBio, C337450, 1:50) were used. For fluorescent staining, the sections were reacted with the secondary antibodies such as donkey anti-goat Alexa Fluor 568 (Invitrogen, 1:150 to 1:400), Goat anti-Rabbit Alexa Fluor 647 (Invitrogen, 1:150), and donkey anti-goat Alexa Fluor 568 (Invitrogen, 1:400) at room temperature for 1 hour. For color staining, after the sections were reacted with the primary antibodies overnight, the sections were reacted with Goat anti-Mouse IgG Secondary Antibody, HRP (Pierce, 1:100) for 1 hour and subjected to a color reaction using DAB staining kit (Vector, SK-4800). Hematoxylin-eosin staining was performed using staining products available from Vector. Image analysis was performed using confocal microscopes equipped with a 40× objective available from Zeiss and Leica. The co-localization effect was verified through Mander's overlap coefficient (MOC). […]
In order to confirm the effect of (R)-PFI-2 in an animal model, (R)-PFI-2 was administered subcutaneously to SuHx-induced pulmonary arterial hypertension rats at a concentration of 10 mg/kg for 3 weeks. […]

The target in the next test is T1, SET7/9 (Homo sapiens, UniProt Q8WTS6).
T1 sequence (Q8WTS6 1-366): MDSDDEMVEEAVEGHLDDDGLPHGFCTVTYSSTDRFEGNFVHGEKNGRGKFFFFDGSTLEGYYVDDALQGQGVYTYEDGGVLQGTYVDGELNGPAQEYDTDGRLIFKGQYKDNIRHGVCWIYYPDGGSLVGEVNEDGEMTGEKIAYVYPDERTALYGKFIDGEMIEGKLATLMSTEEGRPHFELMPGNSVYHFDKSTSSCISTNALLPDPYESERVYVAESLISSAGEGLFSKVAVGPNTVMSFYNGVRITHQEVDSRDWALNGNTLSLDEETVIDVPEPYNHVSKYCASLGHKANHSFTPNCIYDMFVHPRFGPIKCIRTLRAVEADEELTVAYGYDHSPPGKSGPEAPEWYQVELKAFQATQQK
The conditions noted are these: acts by attaching to the substrate peptide binding groove of SET7/9; cited from earlier work.

Here are results for one compound from patent publication US20250154590A1, “USE OF SET7/9 FOR DIAGNOSING AND TREATING ENDMT-RELATED DISEASE” (IBMSOL CO., LTD., priority 2021, published 2025).

Consider `O=C([C@@H](Cc1cccc(C(F)(F)F)c1)NS(=O)(=O)c1cc(F)c2c(c1)CCNC2)N1CCCC1` [(R)-PFI-2], for which the “expression of endothelial cell marker CD31 and mesenchymal cell markers TNC, FN, Calponin, SM22α (Western blot)” value in test [1] (FIG. 9A) is listed as “restoration”. The “expression of PECAM1 and FN, CDH2, COL3A1 (qRT-PCR)” value in test [1] (FIG. 9B) was “restoration”. Moreover, in test [2], the “change in cytoskeleton (phalloidin staining)” value is on record as “reduced”. In addition, the permeability entry in the test with PAECs [3] is on record as “restored”. Besides, the Dil-Ac-LDL uptake ability result in the test with PAECs [4] is “restored”. For the same compound, in test [5] (SuHx rat lung tissue, FIG. 10D), the “SET7/9 expression in blood vessels” value was “decrease”; the “area where endothelial and mesenchymal cell markers were simultaneously stained (EndMT)” value is recorded as “decrease”. Further, in test [5] (SuHx rats, FIG. 10A), the “right ventricular systolic pressure (RVSP mmHg)” value was “decreased”. The “right ventricle/left ventricle+septum ratio (RV/LV+S %)” value in test [5] (SuHx rats, FIG. 10B) was “decreased”. Moreover, the “right ventricle weight (RV mg)” value in test [5] (SuHx rats, FIG. 10C) is recorded as “decreased”. For the same compound, the “muscularization of lung tissue blood vessels (immunohistochemical staining)” value in test [5] (SuHx rats, FIG. 10D) is reported as “significantly reduced”. Also, in test [5] (SuHx rats, FIG. 10F), the “expression of TGFβR1 in lung tissue” value was “decreased”; the “expression of mesenchymal cell markers such as Twist and pVIM in lung tissue” value is “decreased”; the “expression of phosphorylated SMAD2 protein in lung tissue” value was “significantly decreased”. In addition, the “number of blocked or enlarged blood vessels in lung tissue (H&E staining)” value in test [5] (compared to SuHx group, FIG. 10E) is reported as “reduced”. Besides, the “mode of inhibition of SET7/9” value at SET7/9 is reported as “substrate competitive inhibitor”.
